Data reported in PubChem BioAssay (NCI).
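48-hour exposure; five concentrations; linearly interpolated endpoints. GI50: concentration for 50% inhibition of growth. The concentration for full growth arrest is given as TGI.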

Key:
Assay in all cases: DTP human tumour cell line panel, 48 h
SN12C renal = test system: SN12C renal
A549 NSCLC = test system: A549 NSCLC
M14 melanoma = test system: M14 melanoma
HT29 colon = test system: HT29 colon
SF-539 CNS = test system: SF-539 CNS
K-562 leukemia = test system: K-562 leukemia
ACHN renal = test system: ACHN renal
SW-620 colon = test system: SW-620 colon
RXF 393 renal = test system: RXF 393 renal
UO-31 renal = test system: UO-31 renal

Q: With `Nc1ncnc2c1c(-c1ccc(Oc3ccccc3)cc1)nn2C[C@@H]1SSC[C@@H]1O` as the compound, how does the GI50 (SN12C renal) read?
A: The GI50 was 762 nM.

Q: And the TGI (SN12C renal)?
A: The TGI was 11000 nM.

Q: What about the GI50 (A549 NSCLC) of the same compound?
A: Its GI50 is 479 nM.

Q: What about the TGI (A549 NSCLC) of the same compound?
A: Its TGI is 2570 nM.

Q: What about the GI50 (M14 melanoma) of the same compound?
A: The GI50 was 21.2 nM.

Q: And the TGI (M14 melanoma)?
A: The TGI was 46.2 nM.

Q: And the GI50 (HT29 colon)?
A: The GI50 was 334 nM.

Q: And the TGI (HT29 colon)?
A: The TGI was 1700 nM.

Q: And the GI50 (SF-539 CNS)?
A: Its GI50 is 1630 nM.

Q: And the TGI (SF-539 CNS)?
A: The TGI was 26300 nM.

Q: And the GI50 (K-562 leukemia)?
A: Its GI50 is 295 nM.

Q: What about the TGI (K-562 leukemia) of the same compound?
A: The TGI was 3210 nM.

Q: And the GI50 (ACHN renal)?
A: The GI50 was 398 nM.

Q: What about the TGI (ACHN renal) of the same compound?
A: Its TGI is 7010 nM.

Q: What about the GI50 (SW-620 colon) of the same compound?
A: The GI50 was 432 nM.

Q: And the TGI (SW-620 colon)?
A: Its TGI is > 84000 nM.

Q: And the GI50 (RXF 393 renal)?
A: The GI50 was 1460 nM.

Q: What about the TGI (RXF 393 renal) of the same compound?
A: The TGI was 5600 nM.

Q: What about the GI50 (UO-31 renal) of the same compound?
A: Its GI50 is 1540 nM.

Q: And the TGI (UO-31 renal)?
A: Its TGI is 5630 nM.

Q: With `CC1=C(C(=O)CC(=O)C(=O)NC2C3CC4CC(C3)CC2C4)Sc2ccccc2N1` (centres undefined) as the compound, how does the TGI (SN12C renal) read?
A: Its TGI is > 100000 nM.

Q: What about the TGI (A549 NSCLC) of the same compound?
A: The TGI was > 100000 nM.

Q: And the TGI (M14 melanoma)?
A: The TGI was > 100000 nM.

Q: What about the TGI (HT29 colon) of the same compound?
A: The TGI was > 100000 nM.

Q: And the TGI (SF-539 CNS)?
A: The TGI was > 100000 nM.

Q: And the TGI (K-562 leukemia)?
A: The TGI was > 100000 nM.

Q: What about the TGI (ACHN renal) of the same compound?
A: The TGI was > 100000 nM.

Q: What about the TGI (SW-620 colon) of the same compound?
A: Its TGI is > 100000 nM.

Q: And the TGI (RXF 393 renal)?
A: The TGI was > 100000 nM.

Q: What about the TGI (UO-31 renal) of the same compound?
A: The TGI was > 100000 nM.

Q: What does the source list for `CC[C@@]1(O)C(=O)OCc2c1cc1n(c2=O)Cc2cc3c(N)cccc3nc2-1`?
A: GI50 (SN12C renal): 8.12 nM; TGI (SN12C renal): > 23300 nM; GI50 (A549 NSCLC): 70.1 nM; TGI (A549 NSCLC): 2310 nM; GI50 (M14 melanoma): 4.2 nM; TGI (M14 melanoma): 292 nM; GI50 (HT29 colon): 77.4 nM; TGI (HT29 colon): > 30100 nM; GI50 (SF-539 CNS): 5.11 nM; TGI (SF-539 CNS): 18.4 nM; GI50 (K-562 leukemia): 27.7 nM; TGI (K-562 leukemia): > 100000 nM; GI50 (ACHN renal): 4.48 nM; TGI (ACHN renal): 50.1 nM; TGI (SW-620 colon): 16300 nM; GI50 (RXF 393 renal): 89.3 nM; TGI (RXF 393 renal): 340 nM; GI50 (UO-31 renal): 8.41 nM; TGI (UO-31 renal): 127 nM

Q: With `c1ccc(CC(NCCNC(Cc2ccccc2)c2ccccc2)c2ccccc2)cc1` (centres undefined) as the compound, how does the GI50 (SN12C renal) read?
A: Its GI50 is 517 nM.

Q: What about the TGI (SN12C renal) of the same compound?
A: The TGI was 1960 nM.

Q: And the GI50 (A549 NSCLC)?
A: The GI50 was 1100 nM.

Q: What about the TGI (A549 NSCLC) of the same compound?
A: Its TGI is 4690 nM.

Q: What about the GI50 (M14 melanoma) of the same compound?
A: The GI50 was 302 nM.

Q: What about the TGI (M14 melanoma) of the same compound?
A: Its TGI is 1010 nM.

Q: What about the GI50 (HT29 colon) of the same compound?
A: The GI50 was 227 nM.

Q: And the TGI (HT29 colon)?
A: Its TGI is 567 nM.

Q: What about the GI50 (SF-539 CNS) of the same compound?
A: Its GI50 is 451 nM.

Q: And the TGI (SF-539 CNS)?
A: Its TGI is 1640 nM.

Q: What about the GI50 (K-562 leukemia) of the same compound?
A: Its GI50 is 307 nM.

Q: What about the TGI (K-562 leukemia) of the same compound?
A: Its TGI is 890 nM.

Q: And the GI50 (ACHN renal)?
A: The GI50 was 585 nM.

Q: And the TGI (ACHN renal)?
A: Its TGI is 2490 nM.

Q: What about the GI50 (SW-620 colon) of the same compound?
A: Its GI50 is 401 nM.

Q: And the TGI (SW-620 colon)?
A: Its TGI is 1380 nM.

Q: And the GI50 (RXF 393 renal)?
A: Its GI50 is 260 nM.

Q: And the TGI (RXF 393 renal)?
A: Its TGI is 705 nM.

Q: And the GI50 (UO-31 renal)?
A: Its GI50 is 415 nM.

Q: What about the TGI (UO-31 renal) of the same compound?
A: The TGI was 1960 nM.
